Among the data in patent publication US20140377340A1, “HLA-DR BINDING PEPTIDES AND THEIR USES” (priority 2007, published 2014) are IC50 values, retold here.

Broadly, the IC50 is the point on the concentration scale where inhibition reaches its midpoint. Lower therefore signals greater potency in that assay.

One experiment concerns the target T1, purified HLA DRB1*1501 (Homo sapiens, UniProt P01903+P01911).
T1 construct: purified from EBV transformed homozygous cell lines or single MHC allele transfected 721.221, C1R, or fibroblast lines; made in house
Briefly: HLA-DR radioligand binding inhibition assay, DRB1*1501. The procedure: (§1) Instead, wells of an opaque white 96-well Optiplate (Packard) are coated with 3 μg (100 μl@ 30 μg/ml) of HLA-specific antibody (Ab) that “capture” complexes of radiolabeled MHC and unlabeled peptide transferred from the molecular binding assay plate in 100 μl of 0.05% NP40/PBS. After a 3-hour incubation period, the supernatant is decanted and scintillation fluid (Microscint 20) added. Captured complexes are then measured on a microplate scintillation and luminescence counter (TopCount NXTTM; Packard).
(§2) HLA-DR purification. Fifteen distinct HLA-DR molecules were used in quantitative assays to measure the binding of peptides to solubilized HLA-DR molecules. […] Briefly, columns of inactivated Sepharose CL4B and Protein A Sepharose were used as pre-columns. HLA-DR molecules were captured by passage of lysates over LB3.1 monoclonal antibody (anti-HLA-DRA) columns. Antibody columns were washed with 10 mM Tris-HCL, pH8.0 with 1% (v/v) NP-40, followed by PBS containing 0.4% (w/v) n-octylglucoside.
(§3) Briefly, 1-10 nM of radiolabeled peptide was co-incubated for 2 days at either room temperature or 37° C. with 1 μM to 1 nM purified HLA-DR molecules in the presence of a cocktail of protease inhibitors. Assays were performed at various pH conditions, ranging from pH 4 to pH 7. […] After incubation, the percentage of HLA-DR-bound radioactivity is determined by capturing HLA-DR/peptide complexes on Optiplates (Packard Instruments, Meriden, Conn.) coated with the LB3.1 antibody and determining bound counts per minute using the TopCount microscintillation counter (Packard Instruments).

A further experiment concerns the target T2, purified HLA DRB1*0101 (Homo sapiens, UniProt P01903+P01911, A100R/D57E/F55L/F60I/F76Y/I96L/L162R/M171V/P40L/Q125E/R42F/V115G/Y59C).
T2 construct: purified from EBV transformed homozygous cell lines or single MHC allele transfected 721.221, C1R, or fibroblast lines; made in house
Briefly: HLA-DR radioligand binding inhibition assay, DRB1*0101. Particulars: IC50 nM purified HLA DRB1 *0101, purified HLA DRB1*0101. The procedure:
as §1, §2, §3

A further experiment concerns the target T3, purified HLA DRB1*1302 (Homo sapiens, UniProt P01903+P01911, A100E/A169T/K41T/L162R/M171V/P40S/Q125H/Q178H/Q39Y/Q99D/R42S/S66N/T262R/V115G/W38E/Y61H).
T3 construct: purified from EBV transformed homozygous cell lines or single MHC allele transfected 721.221, C1R, or fibroblast lines; made in house
Briefly: HLA-DR radioligand binding inhibition assay, DRB1*1302. The procedure:
as §1, §2, §3

The target in another experiment is T4, purified HLA DRB5*0101 (Homo sapiens, UniProt P01903+Q30154).
T4 construct: purified from EBV transformed homozygous cell lines or single MHC allele transfected 721.221, C1R, or fibroblast lines; made in house
Briefly: HLA-DR radioligand binding inhibition assay, DRB5*0101. The settings on record: IC50 nM purified HLA DRB5 *0101, purified HLA DRB5*0101. How it is done:
as §1, §2, §3

The next experiment has as its target T5, purified HLA DRB1*0405 (Homo sapiens, UniProt P01903+P01911, A100R/A169T/D86S/F76Y/I96L/K127E/L162R/M171V/N62H/P40V/Q125Y/R42H/S133A/S149N/S66Y/V115G/V209L/W38E).
T5 construct: purified from EBV transformed homozygous cell lines or single MHC allele transfected 721.221, C1R, or fibroblast lines; made in house
Nature of the experiment: HLA-DR radioligand binding inhibition assay, DRB1*0405. Particulars: IC50 nM purified HLA DRB1 *0405, purified HLA DRB1*0405. How it is done:
as §1, §2, §3

The next experiment concerns the target T6, purified HLA DRB1*1101 (Homo sapiens, UniProt P01903+P01911, A100R/A169T/A87E/I96F/K41T/L162R/M171V/P40S/Q125H/Q178H/Q39Y/Q99D/R42S/S66Y/T262R/V115G/W38E).
T6 construct: purified from EBV transformed homozygous cell lines or single MHC allele transfected 721.221, C1R, or fibroblast lines; made in house
Nature of the experiment: HLA-DR radioligand binding inhibition assay, DRB1*1101. The settings on record: IC50 nM purified HLA DRB1 *1101, purified HLA DRB1*1101. The procedure: as §1, §2, §3

The next experiment deals with T7, purified HLA DRB1*0401 (Homo sapiens, UniProt P01903+P01911, A100K/A169T/F76Y/I96L/K127E/L162R/M171V/N62H/P40V/Q125Y/R42H/S133A/S149N/S66Y/V115G/V209L/W38E).
T7 construct: purified from EBV transformed homozygous cell lines or single MHC allele transfected 721.221, C1R, or fibroblast lines; made in house
Nature of the experiment: HLA-DR radioligand binding inhibition assay, DRB1*0401. Particulars: IC50 nM purified HLA DRB1 *0401, purified HLA DRB1*0401. How it is done: as §1, §2, §3

A further experiment concerns the target T8, purified HLA DRB1*0701 (Homo sapiens, UniProt P01903+P01911, A100R/A102G/A103Q/D57E/D86V/E43K/F76Y/K127E/L162R/M171V/P40G/Q125H/Q99D/R33Q/R42Y/R54Q/S133A/S66F/T210M/V115G/Y107V/Y59L/Y89S).
T8 construct: purified from EBV transformed homozygous cell lines or single MHC allele transfected 721.221, C1R, or fibroblast lines; made in house
Briefly: HLA-DR radioligand binding inhibition assay, DRB1*0701. The settings on record: IC50 nM purified HLA DRB1 *0701, purified HLA DRB1*0701. The procedure: as §1, §2, §3

Structures are written as SMILES. A value given as a limit tells only on which side of the number the result lay.

T6 sequence (P01903 26-254, other chains not shown): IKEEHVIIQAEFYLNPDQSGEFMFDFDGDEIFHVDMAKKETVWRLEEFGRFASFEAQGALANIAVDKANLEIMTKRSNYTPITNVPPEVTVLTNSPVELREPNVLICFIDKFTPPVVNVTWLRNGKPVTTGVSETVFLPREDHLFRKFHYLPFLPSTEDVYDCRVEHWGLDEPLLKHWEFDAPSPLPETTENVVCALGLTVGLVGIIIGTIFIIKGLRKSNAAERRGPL

On to `CSCC[C@H](NC(=O)[C@H](C)NC(=O)[C@H](CC(C)C)NC(=O)[C@@H]1CCCN1C(=O)[C@H](Cc1ccccc1)NC(=O)[C@@H](NC(=O)[C@H](CCC(=O)O)NC(=O)[C@H](CCC(=O)O)NC(=O)[C@@H](N)CCC(=O)O)C(C)C)C(=O)N[C@@H](CC(N)=O)C(=O)N[C@@H](Cc1ccc(O)cc1)C(=O)N[C@@H](CC(C)C)C(=O)N[C@@H](CC(=O)O)C(=O)N[C@@H](CCCNC(=N)N)C(=O)N[C@@H](Cc1ccccc1)C(=O)O` [Peptide 9019.0152], for which the IC50 at purified HLA DRB1*1501 turned out to be 77 nM; on purified HLA DRB1*0101, 850 nM; on purified HLA DRB1*1302, 26 nM.
On to `CSCC[C@H](NC(=O)[C@H](CC(C)C)NC(=O)[C@H](CCC(N)=O)NC(=O)[C@@H](NC(=O)[C@@H](NC(=O)[C@H](CC(C)C)NC(=O)[C@H](CCC(N)=O)NC(=O)[C@@H](NC(=O)[C@@H](N)[C@@H](C)O)C(C)C)C(C)C)[C@@H](C)O)C(=O)N1CCC[C@H]1C(=O)N[C@@H](Cc1ccc(O)cc1)C(=O)NCC(=O)N[C@@H](CS)C(=O)N[C@@H](CC(C)C)C(=O)N[C@@H](CC(C)C)C(=O)O` [Peptide 9019.0080], for which, at purified HLA DRB5*0101, the IC50 is 3000 nM.
Turning to `CC(C)C[C@H](NC(=O)[C@H](C)NC(=O)[C@H](CC(C)C)NC(=O)[C@@H](N)CC(C)C)C(=O)N[C@@H](CC(C)C)C(=O)N1CCC[C@H]1C(=O)N1CCC[C@H]1C(=O)NCC(=O)N[C@@H](C)C(=O)N[C@@H](C)C(=O)N[C@@H](CO)C(=O)N[C@H](C(=O)N[C@@H](CCC(N)=O)C(=O)N[C@H](C(=O)N[C@@H](CS)C(=O)O)C(C)C)[C@@H](C)O` [Peptide 1622.02], the IC50 was 17 nM on purified HLA DRB5*0101, 17 nM at purified HLA DRB1*0101 and above 20000 nM at purified HLA DRB1*0405.
Regarding `CC[C@H](C)[C@H](NC(=O)[C@H](CCCCN)NC(=O)[C@H](CCC(N)=O)NC(=O)[C@@H](N)CCC(N)=O)C(=O)N[C@@H](CCCNC(=N)N)C(=O)N[C@@H](CCCCN)C(=O)N[C@@H](Cc1ccc(O)cc1)C(=O)N[C@H](C(=O)N[C@@H](CCSC)C(=O)N[C@@H](CCCNC(=N)N)C(=O)N[C@@H](CCCNC(=N)N)C(=O)N[C@@H](CC(C)C)C(=O)N[C@@H](CC(C)C)C(=O)N[C@@H](CCC(N)=O)C(=O)N[C@@H](CCC(=O)O)C(=O)O)[C@@H](C)O` [Peptide 9019.0070], the IC50 on purified HLA DRB5*0101 was 340 nM.
In the case of `CC[C@H](C)[C@H](NC(=O)[C@@H](NC(=O)[C@@H](NC(=O)[C@@H](NC(=O)[C@@H](NC(=O)[C@@H](NC(=O)[C@@H](N)CCCNC(=N)N)[C@@H](C)O)[C@@H](C)O)C(C)C)[C@@H](C)O)[C@@H](C)O)C(=O)N[C@H](C(=O)N[C@H](C(=O)N[C@@H](Cc1ccc(O)cc1)C(=O)N[C@@H](C)C(=O)N[C@@H](CCC(=O)O)C(=O)N1CCC[C@H]1C(=O)N1CCC[C@H]1C(=O)N[C@@H](CCCCN)C(=O)O)C(C)C)[C@@H](C)O` [Peptide 9019.0124], the IC50 was 83 nM on purified HLA DRB1*1501, above 20000 nM at purified HLA DRB1*1101 and 32 nM on purified HLA DRB1*0405.
On to `CC[C@H](C)[C@H](NC(=O)[C@@H](NC(=O)[C@H](CCC(=O)O)NC(=O)[C@H](CCCCN)NC(=O)[C@H](CCSC)NC(=O)[C@H](CCCCN)NC(=O)[C@H](CO)NC(=O)[C@H](C)N)[C@@H](C)O)C(=O)N1CCC[C@H]1C(=O)N[C@@H](CC(C)C)C(=O)N[C@H](C(=O)N[C@@H](C)C(=O)N[C@@H](CCC(=O)O)C(=O)N[C@@H](CCCCN)C(=O)N[C@@H](CC(C)C)C(=O)O)[C@@H](C)O` [Peptide 9019.0158], for which the IC50 on purified HLA DRB1*0401 is above 20000 nM; at purified HLA DRB1*0701, 220 nM; on purified HLA DRB1*0101, 130 nM; on purified HLA DRB1*1302, 550 nM; on purified HLA DRB1*0405, above 20000 nM.
